Measurements as given in ChEMBL document CHEMBL1201862, “PubChem BioAssay data set” (2004).
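Cultured in 96-well plates, cells were exposed to test compound for 48 hours across five concentrations. The concentration for 50% growth inhibition is given as GI50.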 The source made the active and inactive calls. Rule as the data show it: active = GI50 up to about 1.1 µM and inactive = higher.

What was measured:
Test in all cases: NCI anticancer screen, dose series, 48 h
[1] = tested on: LOX IMVI
[2] = tested on: EKVX
[3] = tested on: HCT-116
[4] = tested on: ACHN
[5] = tested on: SF-268
[6] = tested on: A498
[7] = tested on: RXF 393
[8] = tested on: PC-3
[9] = tested on: CCRF-CEM
[10] = tested on: MDA-MB-231
[11] = tested on: SN12C
[12] = tested on: T47D
[13] = tested on: OVCAR-4
[14] = tested on: DU-145
[15] = tested on: BT-549
[16] = tested on: SF-295
[17] = tested on: NCI-H460
[18] = tested on: NCI-H226
[19] = tested on: SNB-75
[20] = tested on: HOP-92

Structure (SMILES) | GI50 [1] | GI50 [2] | GI50 [3] | GI50 [4] | GI50 [5] | GI50 [6] | GI50 [7] | GI50 [8] | GI50 [9] | GI50 [10] | GI50 [11] | GI50 [12] | GI50 [13] | GI50 [14] | GI50 [15] | GI50 [16] | GI50 [17] | GI50 [18] | GI50 [19] | GI50 [20]
COC1=C(OC)C(=O)C(Cc2c(C)nc3sccn23)=C(C)C1=O | 11.7 µM (inactive) | 14.1 µM (inactive) | 19.3 µM (inactive) | 14.9 µM (inactive) | 18.8 µM (inactive) | 14.9 µM (inactive) | 22.8 µM (inactive) | 16.3 µM (inactive) | 3.56 µM (inactive) | 13.1 µM (inactive) | 15.8 µM (inactive) | 18.2 µM (inactive) | 2.92 µM (inactive) | 18.1 µM (inactive) | 16.1 µM (inactive) | 15 µM (inactive) | 20 µM (inactive) | – | – | –
CC(=O)n1[nH]c(=O)n(-c2ccccc2)c1=O | > 100 µM (inactive) | > 100 µM (inactive) | > 100 µM (inactive) | > 100 µM (inactive) | > 100 µM (inactive) | – | > 100 µM (inactive) | > 100 µM (inactive) | > 100 µM (inactive) | > 100 µM (inactive) | > 100 µM (inactive) | > 100 µM (inactive) | > 100 µM (inactive) | > 100 µM (inactive) | > 100 µM (inactive) | > 100 µM (inactive) | > 100 µM (inactive) | > 100 µM (inactive) | – | –
O=c1[nH]c(=O)n(C2CC(O)C(CO)O2)cc1OCCc1ccccc1 (stereo not drawn) | > 100 µM (inactive) | > 100 µM (inactive) | > 100 µM (inactive) | > 100 µM (inactive) | > 100 µM (inactive) | – | > 100 µM (inactive) | > 100 µM (inactive) | > 100 µM (inactive) | > 100 µM (inactive) | > 100 µM (inactive) | > 100 µM (inactive) | > 100 µM (inactive) | > 100 µM (inactive) | > 100 µM (inactive) | > 100 µM (inactive) | > 10 µM (inactive) | > 100 µM (inactive) | > 100 µM (inactive) | –
Cc1cc2ccccc2n2c1nc1ccccc12 | – | > 100 µM (inactive) | > 100 µM (inactive) | > 100 µM (inactive) | > 100 µM (inactive) | 15.2 µM (inactive) | > 100 µM (inactive) | > 100 µM (inactive) | > 100 µM (inactive) | – | > 100 µM (inactive) | > 100 µM (inactive) | – | > 100 µM (inactive) | > 100 µM (inactive) | > 100 µM (inactive) | > 100 µM (inactive) | > 100 µM (inactive) | > 100 µM (inactive) | > 100 µM (inactive)
Cc1ccc(S(=O)(=O)NNCNC(=O)c2ccccc2)cc1 | 68.7 µM (inactive) | > 100 µM (inactive) | > 100 µM (inactive) | > 100 µM (inactive) | > 100 µM (inactive) | – | > 100 µM (inactive) | > 100 µM (inactive) | 17.6 µM (inactive) | > 100 µM (inactive) | > 100 µM (inactive) | 83.4 µM (inactive) | > 100 µM (inactive) | > 100 µM (inactive) | > 100 µM (inactive) | > 100 µM (inactive) | – | > 100 µM (inactive) | > 100 µM (inactive) | > 100 µM (inactive)
CN(C)CCNc1ncnc2nc(-c3ccccc3)c(-c3ccccc3)nc12 | > 100 µM (inactive) | > 100 µM (inactive) | > 100 µM (inactive) | – | > 100 µM (inactive) | > 100 µM (inactive) | > 100 µM (inactive) | > 100 µM (inactive) | > 100 µM (inactive) | > 100 µM (inactive) | > 100 µM (inactive) | > 100 µM (inactive) | – | > 100 µM (inactive) | > 100 µM (inactive) | – | – | > 100 µM (inactive) | 87.7 µM (inactive) | –
Cc1ccc2nc(NC(=O)C(=O)C3C(=O)NC(=S)NC3=O)sc2c1 | > 100 µM (inactive) | > 100 µM (inactive) | > 100 µM (inactive) | > 100 µM (inactive) | > 100 µM (inactive) | > 100 µM (inactive) | 43.6 µM (inactive) | > 100 µM (inactive) | > 100 µM (inactive) | > 100 µM (inactive) | > 100 µM (inactive) | > 100 µM (inactive) | > 100 µM (inactive) | – | > 100 µM (inactive) | > 100 µM (inactive) | > 100 µM (inactive) | > 100 µM (inactive) | > 100 µM (inactive) | > 100 µM (inactive)
O=C(Nc1nnc(-c2ccccc2)o1)C(SC(=S)N1CCOCC1)c1ccccc1 (stereo not drawn) | 16.3 µM (inactive) | 15.3 µM (inactive) | 22.5 µM (inactive) | 20.9 µM (inactive) | – | 23.8 µM (inactive) | 41.9 µM (inactive) | 27 µM (inactive) | 5.75 µM (inactive) | 42 µM (inactive) | 12.6 µM (inactive) | 39.8 µM (inactive) | 34 µM (inactive) | 37.2 µM (inactive) | 22.5 µM (inactive) | 21.8 µM (inactive) | 10.1 µM (inactive) | 34.4 µM (inactive) | 47.9 µM (inactive) | –
Clc1cc2nn(C3CCCCO3)nc2cc1Cl (stereo not drawn) | – | > 100 µM (inactive) | > 100 µM (inactive) | > 100 µM (inactive) | – | – | > 100 µM (inactive) | > 100 µM (inactive) | > 100 µM (inactive) | > 100 µM (inactive) | > 100 µM (inactive) | > 100 µM (inactive) | > 100 µM (inactive) | > 100 µM (inactive) | > 100 µM (inactive) | > 100 µM (inactive) | > 100 µM (inactive) | > 100 µM (inactive) | > 100 µM (inactive) | –
COc1ccc(/N=N/c2c(C)c(C#N)c(=S)n(C3OC(CO)C(O)C(O)C3O)c2-c2ccccc2)cc1 (stereo not drawn) | 27.8 µM (inactive) | – | 30.1 µM (inactive) | 26 µM (inactive) | 44.9 µM (inactive) | 20.9 µM (inactive) | 28 µM (inactive) | 17.1 µM (inactive) | 20 µM (inactive) | 51.1 µM (inactive) | 32.3 µM (inactive) | 27.1 µM (inactive) | 31.9 µM (inactive) | 32.1 µM (inactive) | 38 µM (inactive) | 30.8 µM (inactive) | 31.3 µM (inactive) | – | 17.2 µM (inactive) | –
CCN=C=NCCCN(C)C | > 100 µM (inactive) | > 100 µM (inactive) | > 100 µM (inactive) | > 100 µM (inactive) | > 100 µM (inactive) | > 100 µM (inactive) | > 100 µM (inactive) | > 100 µM (inactive) | > 100 µM (inactive) | > 100 µM (inactive) | > 100 µM (inactive) | – | > 100 µM (inactive) | > 100 µM (inactive) | > 100 µM (inactive) | > 100 µM (inactive) | > 100 µM (inactive) | > 100 µM (inactive) | > 100 µM (inactive) | > 100 µM (inactive)
Cc1cc2nc(N3C(=O)/C(=C/c4cccc([N+](=O)[O-])c4)N=C3c3ccccc3)sc2cc1C | 19.2 µM (inactive) | 18.8 µM (inactive) | 23.9 µM (inactive) | 37 µM (inactive) | 25.9 µM (inactive) | – | 15.6 µM (inactive) | 17.4 µM (inactive) | 9.95 µM (inactive) | 62.4 µM (inactive) | 26.7 µM (inactive) | 27.1 µM (inactive) | 25.8 µM (inactive) | 42.8 µM (inactive) | 32.4 µM (inactive) | 32.4 µM (inactive) | 29.2 µM (inactive) | – | 6.84 µM (inactive) | 6.7 µM (inactive)
CSc1nc(NC2OCC(OC(C)=O)C(OC(C)=O)C2OC(C)=O)c(/N=C\C=N\c2c(NC3OCC(OC(C)=O)C(OC(C)=O)C3OC(C)=O)nc(SC)[nH]c2=O)c(=O)[nH]1 (stereo not drawn) | > 100 µM (inactive) | > 86.9 µM (inactive) | > 80.2 µM (inactive) | > 67.8 µM (inactive) | > 100 µM (inactive) | > 100 µM (inactive) | 22.8 µM (inactive) | – | > 54.8 µM (inactive) | > 100 µM (inactive) | > 100 µM (inactive) | 89.7 µM (inactive) | > 100 µM (inactive) | > 100 µM (inactive) | 55.2 µM (inactive) | > 66.8 µM (inactive) | > 100 µM (inactive) | > 52.8 µM (inactive) | 19.9 µM (inactive) | 35.5 µM (inactive)
CSc1c(C#N)c(S)[nH]c(=O)c1C#N | 37.1 µM (inactive) | 29.6 µM (inactive) | 34.4 µM (inactive) | – | 32.7 µM (inactive) | 38.2 µM (inactive) | 26.1 µM (inactive) | 29.4 µM (inactive) | 55.5 µM (inactive) | 42.8 µM (inactive) | 85.5 µM (inactive) | 24.9 µM (inactive) | 10.4 µM (inactive) | 48 µM (inactive) | 40.5 µM (inactive) | – | 97.7 µM (inactive) | 30.3 µM (inactive) | 32.1 µM (inactive) | –
COc1ccc(N[S+]([O-])c2ccc(Cl)cc2)cc1 (stereo not drawn) | 31 µM (inactive) | 55.2 µM (inactive) | 14.5 µM (inactive) | 91 µM (inactive) | 4 µM (inactive) | – | – | – | 50.5 µM (inactive) | 50.4 µM (inactive) | > 100 µM (inactive) | 10.1 µM (inactive) | > 100 µM (inactive) | 43.5 µM (inactive) | 0.248 µM (active) | 45.8 µM (inactive) | 24.3 µM (inactive) | 19.5 µM (inactive) | – | –
COC(=O)C1C=CN(N(C)C)C2=C1C(=O)c1c(O)cccc1C2=O (stereo not drawn) | – | 2.79 µM (inactive) | 1.92 µM (inactive) | 3.37 µM (inactive) | 3.83 µM (inactive) | 2.81 µM (inactive) | 2.79 µM (inactive) | 2.96 µM (inactive) | 2.22 µM (inactive) | 1.89 µM (inactive) | 1.73 µM (inactive) | 2.32 µM (inactive) | 2.17 µM (inactive) | 1.58 µM (inactive) | 1.99 µM (inactive) | 1.65 µM (inactive) | 1.04 µM (active) | 1.87 µM (inactive) | 1.66 µM (inactive) | –
